According to patent US9932314B2, “Pyrazole compounds and their use as T-type calcium channel blockers” (IDORSIA PHARMACEUTICALS LTD, priority 2015, dated 2018):

These molecules were tested against T1, voltage-dependent T-type calcium channel subunit alpha-1G (Cav3.2) (Homo sapiens, UniProt O95180) (assay: FLIPR calcium flux assay, HEK293 cells recombinantly expressing Cav3.2). Conditions: Cav3.2-channel, Fluo-4-AM, 3 min incubation, stimulation with 10 mM CaCl2.
T1 construct: expressed in transfected cells; host or cells: HEK293
Type: cell-based
Procedure, shortened: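 Calcium influx was triggered by adding CaCl2 to 10 mM final, 3 min after compounds in tetraethylammonium-based buffer, pH 7.2, reached Fluo-4-AM-loaded recombinant HEK293 cells. The integrated kinetic fluorescence signal per concentration gave concentration-response curves by non-linear sigmoidal regression.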

T1 sequence (O95180 whole entry): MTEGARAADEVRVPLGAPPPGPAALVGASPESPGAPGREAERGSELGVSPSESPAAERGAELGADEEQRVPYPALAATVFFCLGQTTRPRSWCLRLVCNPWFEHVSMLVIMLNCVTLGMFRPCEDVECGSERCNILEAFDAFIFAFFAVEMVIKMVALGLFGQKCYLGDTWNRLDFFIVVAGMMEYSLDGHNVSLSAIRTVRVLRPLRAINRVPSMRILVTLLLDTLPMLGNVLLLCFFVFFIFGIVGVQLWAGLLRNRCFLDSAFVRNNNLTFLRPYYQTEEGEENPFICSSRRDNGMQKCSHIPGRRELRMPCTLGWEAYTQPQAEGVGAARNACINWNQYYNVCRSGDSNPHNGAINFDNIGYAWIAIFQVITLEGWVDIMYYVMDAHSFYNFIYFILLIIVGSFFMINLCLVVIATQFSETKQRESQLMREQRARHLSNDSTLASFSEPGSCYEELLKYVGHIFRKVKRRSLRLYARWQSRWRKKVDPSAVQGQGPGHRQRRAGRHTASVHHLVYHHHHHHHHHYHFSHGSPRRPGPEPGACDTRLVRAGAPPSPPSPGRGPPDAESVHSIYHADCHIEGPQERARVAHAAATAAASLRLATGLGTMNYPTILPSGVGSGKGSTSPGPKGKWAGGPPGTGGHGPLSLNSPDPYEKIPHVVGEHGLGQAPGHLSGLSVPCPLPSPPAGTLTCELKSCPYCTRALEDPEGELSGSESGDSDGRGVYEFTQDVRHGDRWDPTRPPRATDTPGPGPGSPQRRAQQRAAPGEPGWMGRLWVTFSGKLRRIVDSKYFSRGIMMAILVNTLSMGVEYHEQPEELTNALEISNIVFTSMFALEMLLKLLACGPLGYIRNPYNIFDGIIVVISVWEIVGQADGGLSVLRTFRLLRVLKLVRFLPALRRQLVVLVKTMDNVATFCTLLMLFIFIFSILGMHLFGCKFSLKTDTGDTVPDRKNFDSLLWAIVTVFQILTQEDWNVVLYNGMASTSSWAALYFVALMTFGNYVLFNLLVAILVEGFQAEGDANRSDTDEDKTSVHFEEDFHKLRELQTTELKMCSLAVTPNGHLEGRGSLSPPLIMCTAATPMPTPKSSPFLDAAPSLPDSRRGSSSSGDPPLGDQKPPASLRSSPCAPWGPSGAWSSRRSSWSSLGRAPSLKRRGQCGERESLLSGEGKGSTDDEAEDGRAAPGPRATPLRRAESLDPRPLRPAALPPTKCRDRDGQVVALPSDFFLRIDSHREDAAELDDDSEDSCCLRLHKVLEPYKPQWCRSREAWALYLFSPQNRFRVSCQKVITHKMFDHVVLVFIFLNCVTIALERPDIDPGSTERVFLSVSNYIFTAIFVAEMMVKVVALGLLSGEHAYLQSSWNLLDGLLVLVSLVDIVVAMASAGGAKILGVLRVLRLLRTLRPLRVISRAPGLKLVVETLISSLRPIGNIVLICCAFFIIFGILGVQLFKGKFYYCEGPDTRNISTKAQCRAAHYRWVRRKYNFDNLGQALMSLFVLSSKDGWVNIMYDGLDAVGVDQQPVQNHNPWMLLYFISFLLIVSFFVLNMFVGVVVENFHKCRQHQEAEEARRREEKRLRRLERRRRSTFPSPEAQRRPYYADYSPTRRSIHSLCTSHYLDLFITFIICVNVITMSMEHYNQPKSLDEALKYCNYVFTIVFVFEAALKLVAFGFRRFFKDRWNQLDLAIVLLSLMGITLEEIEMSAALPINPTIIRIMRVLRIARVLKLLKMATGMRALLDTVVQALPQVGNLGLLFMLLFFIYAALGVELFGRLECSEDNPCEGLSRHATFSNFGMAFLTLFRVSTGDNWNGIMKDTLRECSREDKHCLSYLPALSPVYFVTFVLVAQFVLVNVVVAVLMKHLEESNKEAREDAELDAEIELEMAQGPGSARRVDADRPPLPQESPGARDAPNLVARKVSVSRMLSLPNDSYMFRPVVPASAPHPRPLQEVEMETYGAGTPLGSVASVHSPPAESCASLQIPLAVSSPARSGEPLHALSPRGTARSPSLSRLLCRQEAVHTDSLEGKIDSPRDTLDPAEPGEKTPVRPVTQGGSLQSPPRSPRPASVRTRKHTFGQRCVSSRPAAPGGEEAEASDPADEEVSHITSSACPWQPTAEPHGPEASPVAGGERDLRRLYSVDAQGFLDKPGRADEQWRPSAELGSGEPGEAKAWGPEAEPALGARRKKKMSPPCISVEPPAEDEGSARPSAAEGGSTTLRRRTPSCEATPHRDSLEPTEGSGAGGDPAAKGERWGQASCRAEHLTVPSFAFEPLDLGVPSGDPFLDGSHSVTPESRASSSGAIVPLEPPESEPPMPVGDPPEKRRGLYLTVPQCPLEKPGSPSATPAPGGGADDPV

IC50 | Molecule
122 nM | CC1(C)COc2cc(CC(=O)Nc3ccn(Cc4ccc(C#N)cn4)n3)ccc21 [Example 387, N-[1-(5-Cyano-pyridin-2-ylmethyl)-1H-pyrazol-3-yl]-2-(3,3-dimethyl-2,3-dihydro-benzofuran-6-yl)-acetamide]
506 nM | N#Cc1cnc(Cn2ccc(NC(=O)Cc3ccc(C4(C(F)(F)F)CC4)cc3)n2)c(F)c1 [Example 389, N-[1-(5-Cyano-3-fluoro-pyridin-2-ylmethyl)-1H-pyrazol-3-yl]-2-[4-(1-trifluoromethyl-cyclopropyl)-phenyl]-acetamide]
47 nM | N#Cc1ccc(Cn2ccc(NC(=O)Cc3ccc(C4(C#N)CC(F)(F)C4)cc3)n2)nc1 [Example 390, 2-[4-(1-Cyano-3,3-difluoro-cyclobutyl)-phenyl]-N-[1-(5-cyano-pyridin-2-ylmethyl)-1H-pyrazol-3-yl]-acetamide]
2.1 nM | Cc1cc(CC(=O)Nc2ccn(Cc3ccc(F)c(C#N)n3)n2)ccc1OCC(F)(F)F [Example 391, N-[1-(6-Cyano-5-fluoro-pyridin-2-ylmethyl)-1H-pyrazol-3-yl]-2-[3-methyl-4-(2,2,2-trifluoro-ethoxy)-phenyl]-acetamide]
101 nM | CC(C)Cc1ccc(CC(=O)Nc2ccn(Cc3ccc(C#N)cn3)n2)cc1C#N [Example 392, 2-(3-Cyano-4-isobutyl-phenyl)-N-[1-(5-cyano-pyridin-2-ylmethyl)-1H-pyrazol-3-yl]-acetamide]
51 nM | CC(C)Cc1ccc(CC(=O)Nc2ccn(Cc3ccc(F)c(F)c3)n2)cc1C#N [Example 393, 2-(3-Cyano-4-isobutyl-phenyl)-N-[1-(3,4-difluoro-benzyl)-1H-pyrazol-3-yl]-acetamide]
126 nM | CC(C)c1ccc(CC(=O)Nc2ccn(Cc3ccc(N4CCC4)cn3)n2)cc1 [Example 394, N-[1-(5-Azetidin-1-yl-pyridin-2-ylmethyl)-1H-pyrazol-3-yl]-2-(4-isopropyl-phenyl)-acetamide]
315 nM | CC(C)c1ccc(CC(=O)Nc2ccn(Cc3ccc(N4CCCC4)cn3)n2)cc1 [Example 395, 2-(4-Isopropyl-phenyl)-N-[1-(5-pyrrolidin-1-yl-pyridin-2-ylmethyl)-1H-pyrazol-3-yl]-acetamide]
369 nM | CC(C)c1ccc(CC(=O)Nc2ccn(Cc3ccc(N4CCC(F)(F)C4)cn3)n2)cc1 [Example 396, N-{1-[5-(3,3-Difluoro-pyrrolidin-1-yl)-pyridin-2-ylmethyl]-1H-pyrazol-3-yl}-2-(4-isopropyl-phenyl)-acetamide]
44 nM | N#Cc1ccc(Cn2ccc(NC(=O)Cc3ccc(OCC4CC4)c(OC(F)(F)F)c3)n2)nc1 [Example 397, N-[1-(5-Cyano-pyridin-2-ylmethyl)-1H-pyrazol-3-yl]-2-(4-cyclopropylmethoxy-3-trifluoromethoxy-phenyl)-acetamide]
39 nM | O=C(Cc1ccc(OCC2CC2)c(OC(F)(F)F)c1)Nc1ccn(Cc2ccc(F)c(F)c2)n1 [Example 398, 2-(4-Cyclopropylmethoxy-3-trifluoromethoxy-phenyl)-N-[1-(3,4-difluoro-benzyl)-1H-pyrazol-3-yl]-acetamide]
60 nM | Cc1cc(CC(=O)Nc2ccn(Cc3cc(C#N)c(F)cn3)n2)ccc1OCC(F)(F)F [Example 399, N-[1-(4-Cyano-5-fluoro-pyridin-2-ylmethyl)-1H-pyrazol-3-yl]-2-[3-methyl-4-(2,2,2-trifluoro-ethoxy)-phenyl]-acetamide]
49 nM | CC(C)(C)c1ccc(CC(=O)Nc2ccn(Cc3cc(C#N)c(F)cn3)n2)cc1 [Example 400, 2-(4-tert-Butyl-phenyl)-N-[1-(4-cyano-5-fluoro-pyridin-2-ylmethyl)-1H-pyrazol-3-yl]-acetamide]
126 nM | CC(C)c1ccc(CC(=O)Nc2ccn(Cc3cc(C#N)c(F)cn3)n2)cc1 [Example 401, N-[1-(4-Cyano-5-fluoro-pyridin-2-ylmethyl)-1H-pyrazol-3-yl]-2-(4-isopropyl-phenyl)-acetamide]
106 nM | N#Cc1cc(Cn2ccc(NC(=O)Cc3ccc(C4(C(F)(F)F)CC4)cc3)n2)ncc1F [Example 402, N-[1-(4-Cyano-5-fluoro-pyridin-2-ylmethyl)-1H-pyrazol-3-yl]-2-[4-(1-trifluoromethyl-cyclopropyl)-phenyl]-acetamide]
97 nM | N#Cc1ccc(Cn2ccc(NC(=O)Cc3ccc(C4(C#N)CC4)c(C(F)(F)F)c3)n2)nc1 [Example 403, 2-[4-(1-Cyano-cyclopropyl)-3-trifluoromethyl-phenyl]-N-[1-(5-cyano-pyridin-2-ylmethyl)-1H-pyrazol-3-yl]-acetamide]

IC50 | Molecule
14 nM | N#CC1(c2ccc(CC(=O)Nc3ccn(Cc4ccc(F)c(F)c4)n3)cc2C(F)(F)F)CC1 [Example 404, 2-[4-(1-Cyano-cyclopropyl)-3-trifluoromethyl-phenyl]-N-[1-(3,4-difluoro-benzyl)-1H-pyrazol-3-yl]-acetamide]
15 nM | N#Cc1ccc(Cn2ccc(NC(=O)Cc3ccc(OCC(F)(F)F)c(C4CC4)c3)n2)nc1 [Example 406, N-[1-(5-Cyano-pyridin-2-ylmethyl)-1H-pyrazol-3-yl]-2-[3-cyclopropyl-4-(2,2,2-trifluoro-ethoxy)-phenyl]-acetamide]
8.5 nM | N#Cc1nc(Cn2ccc(NC(=O)Cc3ccc(OCC(F)(F)F)c(C4CC4)c3)n2)ccc1F [Example 408, N-[1-(6-Cyano-5-fluoro-pyridin-2-ylmethyl)-1H-pyrazol-3-yl]-2-[3-cyclopropyl-4-(2,2,2-trifluoro-ethoxy)-phenyl]-acetamide]
43 nM | N#Cc1cc(Cn2ccc(NC(=O)Cc3ccc(OCC(F)(F)F)c(C4CC4)c3)n2)ncc1F [Example 409, N-[1-(4-Cyano-5-fluoro-pyridin-2-ylmethyl)-1H-pyrazol-3-yl]-2-[3-cyclopropyl-4-(2,2,2-trifluoro-ethoxy)-phenyl]-acetamide]
17 nM | Cc1cc(CC(=O)Nc2ccn(Cc3ccc(F)c(C#N)n3)n2)ccc1OC(F)(F)F [Example 410, N-[1-(6-Cyano-5-fluoro-pyridin-2-ylmethyl)-1H-pyrazol-3-yl]-2-(3-methyl-4-trifluoromethoxy-phenyl)-acetamide]
5.3 nM | CCc1cc(CC(=O)Nc2ccn(Cc3ccc(F)c(C#N)n3)n2)ccc1OCC(F)(F)F [Example 412, N-[1-(6-Cyano-5-fluoro-pyridin-2-ylmethyl)-1H-pyrazol-3-yl]-2-[3-ethyl-4-(2,2,2-trifluoro-ethoxy)-phenyl]-acetamide]
30 nM | CCc1cc(CC(=O)Nc2ccn(Cc3cc(C#N)c(F)cn3)n2)ccc1OCC(F)(F)F [Example 413, N-[1-(4-Cyano-5-fluoro-pyridin-2-ylmethyl)-1H-pyrazol-3-yl]-2-[3-ethyl-4-(2,2,2-trifluoro-ethoxy)-phenyl]-acetamide]
6.4 nM | Cc1cc(CC(=O)Nc2ccn(Cc3ccc(C#N)cn3)n2)cc(C)c1OCC(F)(F)F [Example 414, N-[1-(5-Cyano-pyridin-2-ylmethyl)-1H-pyrazol-3-yl]-2-[3,5-dimethyl-4-(2,2,2-trifluoro-ethoxy)-phenyl]-acetamide]
4.9 nM | Cc1cc(CC(=O)Nc2ccn(Cc3ccc(F)c(C#N)n3)n2)cc(C)c1OCC(F)(F)F [Example 415, N-[1-(6-Cyano-5-fluoro-pyridin-2-ylmethyl)-1H-pyrazol-3-yl]-2-[3,5-dimethyl-4-(2,2,2-trifluoro-ethoxy)-phenyl]-acetamide]
17 nM | Cc1cc(CC(=O)Nc2ccn(Cc3cc(C#N)c(F)cn3)n2)cc(C)c1OCC(F)(F)F [Example 416, N-[1-(4-Cyano-5-fluoro-pyridin-2-ylmethyl)-1H-pyrazol-3-yl]-2-[3,5-dimethyl-4-(2,2,2-trifluoro-ethoxy)-phenyl]-acetamide]
37 nM | Cc1cc(CC(=O)Nc2ccn(Cc3ccc(C#N)cn3)n2)cnc1OCC(F)(F)F [Example 417, N-[1-(5-Cyano-pyridin-2-ylmethyl)-1H-pyrazol-3-yl]-2-[5-methyl-6-(2,2,2-trifluoro-ethoxy)-pyridin-3-yl]-acetamide]
94 nM | Cc1cc(CC(=O)Nc2ccn(Cc3ccc(F)c(C#N)n3)n2)cnc1OCC(F)(F)F [Example 418, N-[1-(6-Cyano-5-fluoro-pyridin-2-ylmethyl)-1H-pyrazol-3-yl]-2-[5-methyl-6-(2,2,2-trifluoro-ethoxy)-pyridin-3-yl]-acetamide]
9430 nM | Cc1cc(CC(=O)Nc2ccn(Cc3cc(C#N)c(F)cn3)n2)cnc1OCC(F)(F)F [Example 419, N-[1-(4-Cyano-5-fluoro-pyridin-2-ylmethyl)-1H-pyrazol-3-yl]-2-[5-methyl-6-(2,2,2-trifluoro-ethoxy)-pyridin-3-yl]-acetamide]
8.7 nM | Cc1cc(CC(=O)Nc2ccn(Cc3ccc(F)c(C#N)n3)n2)ccc1OCCC(F)(F)F [Example 420, N-[1-(6-Cyano-5-fluoro-pyridin-2-ylmethyl)-1H-pyrazol-3-yl]-2-[3-methyl-4-(3,3,3-trifluoro-propoxy)-phenyl]-acetamide]
41 nM | Cc1cc(CC(=O)Nc2ccn(Cc3cc(C#N)c(F)cn3)n2)ccc1OCCC(F)(F)F [Example 421, N-[1-(4-Cyano-5-fluoro-pyridin-2-ylmethyl)-1H-pyrazol-3-yl]-2-[3-methyl-4-(3,3,3-trifluoro-propoxy)-phenyl]-acetamide]

Molecule | IC50
N-[1-(5-Cyano-pyridin-2-ylmethyl)-1H-pyrazol-3-yl]-2-[4-(1-methyl-cyclopropyl)-phenyl]-acetamide [Example 375] | 9.9 nM
